The values that follow come from patent US11548871B2, “Triazole carbamate pyridyl sulfonamides as LPA receptor antagonists and uses thereof” (Gilead Sciences, Inc., priority 2019, dated 2023).

The EC50 is the concentration giving half of the maximal effect.

SMILES strings stand for the structures.

The target in the assay is human LPAR1 (Homo sapiens, UniProt Q92633). Nature of the assay: LPAR1 intracellular calcium mobilization assay (antagonist mode).
Sequence of human LPAR1 (Q92633 whole entry): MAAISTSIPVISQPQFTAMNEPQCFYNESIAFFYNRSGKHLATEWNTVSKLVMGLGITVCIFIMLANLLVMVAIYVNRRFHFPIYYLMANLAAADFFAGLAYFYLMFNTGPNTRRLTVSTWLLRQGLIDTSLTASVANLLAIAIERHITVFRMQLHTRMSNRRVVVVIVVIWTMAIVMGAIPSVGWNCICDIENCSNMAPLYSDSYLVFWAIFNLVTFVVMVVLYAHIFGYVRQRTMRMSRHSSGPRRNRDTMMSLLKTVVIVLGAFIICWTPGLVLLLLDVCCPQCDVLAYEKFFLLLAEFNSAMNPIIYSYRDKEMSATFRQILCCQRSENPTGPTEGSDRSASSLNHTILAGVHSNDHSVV

With `Cc1nc(-c2nnn(C)c2NC(=O)O[C@@H](c2cccc(Cl)c2)C(F)F)ccc1NS(C)(=O)=O` [Compound 62, (S)-1-(3-chlorophenyl)-2,2-difluoroethyl (1-methyl-4-(6-methyl-5-(methylsulfonamido)pyridin-2-yl)-1H-1,2,3-triazol-5-yl)carbamate], the EC50 was 29 nM. To `C[C@@H](OC(=O)Nc1c(-c2ncc(NS(C)(=O)=O)cc2F)nnn1C)c1cccc(F)c1` [Compound 88, (R)-1-(3-fluorophenyl)ethyl(4-(3-fluoro-5-(methylsulfonamido)pyridin-2-yl)-1-methyl-1H-1,2,3-triazol-5-yl)carbamate] belongs 256 nM; to `Cc1nc(-c2nnn(C)c2NC(=O)O[C@H](C)c2cccnc2F)ccc1NS(C)(=O)=O` [Compound 128, (R)-1-(2-fluoropyridin-3-yl)ethyl (1-methyl-4-(6-methyl-5-(methylsulfonamido)pyridin-2-yl)-1H-1,2,3-triazol-5-yl)carbamate], 265 nM.

On to `CCn1nnc(-c2ccc(NS(C)(=O)=O)c(C)n2)c1NC(=O)O[C@H](C)c1cccnc1Cl` [Compound 157, (R)-1-(2-chloropyridin-3-yl)ethyl (1-ethyl-4-(6-methyl-5-(methylsulfonamido)pyridin-2-yl)-1H-1,2,3-triazol-5-yl)carbamate], for which the EC50 was 374 nM. The figure for `Cc1nc(-c2nnn(C)c2NC(=O)O[C@H](C)c2cccc(F)c2)ccc1NS(=O)(=O)C1CC1` [Compound 106, (R)-1-(3-fluoro-phenyl)ethyl(4-(5-(cyclopropane-sulfonamido)-6-methylpyridin-2-yl)-1-methyl-1H-1,2,3-triazol-5-yl)carbamate] is 313 nM; for `CCCn1nnc(-c2ccc(NS(C)(=O)=O)c(C)n2)c1NC(=O)O[C@H](C)c1ccccc1Cl` [Compound 12, (R)-1-(2-chlorophenyl)ethyl (4-(6-methyl-5-(methylsulfonamido)pyridin-2-yl)-1-propyl-1H-1,2,3-triazol-5-yl)carbamate] it is 221 nM; for `Cn1nnc(-c2ccc(NS(C)(=O)=O)cn2)c1NC(=O)O[C@H](CF)c1cccc(F)c1` [Compound 22, (S)-2-fluoro-1-(3-fluorophenyl)ethyl (1-methyl-4-(5-(methylsulfonamido)pyridin-2-yl)-1H-1,2,3-triazol-5-yl)carbamate] it is 8.7 nM. In the case of `C[C@@H](OC(=O)Nc1c(-c2ccc(NS(C)(=O)=O)cn2)nnn1C)c1cc(Cl)cnc1F` [Compound 111, (R)-1-(5-chloro-2-fluoropyridin-3-yl)ethyl (1-methyl-4-(5-(methylsulfonamido)pyridin-2-yl)-1H-1,2,3-triazol-5-yl)carbamate], the EC50 turned out to be 42.1 nM.

As for `Cc1nc(-c2nnn(C)c2NC(=O)O[C@H](C)c2ccccc2F)ccc1NS(C)(=O)=O` [Compound 93, (R)-1-(2-fluorophenyl)ethyl(1-methyl-4-(6-methyl-5-(methylsulfonamido)pyridin-2-yl)-1H-1,2,3-triazol-5-yl)carbamate], the EC50 is 41.3 nM. Turning to `Cc1nc(-c2nnn(C)c2NC(=O)OC(C)c2cc(Br)cnc2Cl)ccc1NS(C)(=O)=O` (stereo not shown) [Compound 130, 1-(5-bromo-2-chloropyridin-3-yl)ethyl (1-methyl-4-(6-methyl-5-(methylsulfonamido)pyridin-2-yl)-1H-1,2,3-triazol-5-yl)carbamate], the EC50 came out at 272 nM. The figure for `Cc1nc(-c2nnn(C)c2NC(=O)OCc2cccc(F)c2)ccc1NS(C)(=O)=O` [Compound 91, 3-fluorobenzyl(1-methyl-4-(6-methyl-5-(methylsulfonamido)pyridin-2-yl)-1H-1,2,3-triazol-5-yl)carbamate] is 72.6 nM; for `C[C@@H](OC(=O)Nc1c(-c2ccc(NS(C)(=O)=O)cn2)nnn1C)c1cccnc1Cl` [Compound 23, (R)-1-(2-chloropyridin-3-yl)ethyl (1-methyl-4-(5-(methylsulfonamido)pyridin-2-yl)-1H-1,2,3-triazol-5-yl)carbamate] it is 36 nM. The figure for `COCc1ccccc1[C@@H](C)OC(=O)Nc1c(-c2ccc(NS(C)(=O)=O)c(C)n2)nnn1C` [Compound 35, (R)-1-(2-(methoxymethyl)phenyl)ethyl (1-methyl-4-(6-methyl-5-(methylsulfonamido)pyridin-2-yl)-1H-1,2,3-triazol-5-yl)carbamate] is 327 nM; for `Cc1cccc(COC(=O)Nc2c(-c3ccc(NS(C)(=O)=O)c(C)n3)nnn2C)c1` [Compound 37, 3-methylbenzyl (1-methyl-4-(6-methyl-5-(methylsulfonamido)pyridin-2-yl)-1H-1,2,3-triazol-5-yl)carbamate] it is 172 nM.

With `Cc1nc(-c2nnn(C)c2NC(=O)OC(C)c2cc(Cl)cnc2Cl)ccc1NS(C)(=O)=O` (stereo not shown) [Compound 84, 1-(2,5-dichloropyridin-3-yl)ethyl (1-methyl-4-(6-methyl-5-(methylsulfonamido)pyridin-2-yl)-1H-1,2,3-triazol-5-yl)carbamate], the EC50 was 193 nM.

With `Cc1nc(-c2nnn(C)c2NC(=O)O[C@@H](c2ccccc2F)C(F)(F)F)ccc1NS(C)(=O)=O` [Compound 97, (S)-2,2,2-trifluoro-1-(2-fluorophenyl)ethyl(1-methyl-4-(6-methyl-5-(methylsulfonamido)pyridin-2-yl)-1H-1,2,3-triazol-5-yl)carbamate], the EC50 amounted to 387 nM. Consider `COCc1nc(-c2nnn(C)c2NC(=O)O[C@H](C)c2cc(F)cnc2Cl)ccc1NS(C)(=O)=O` [Compound 144, (R)-1-(2-Chloro-5-fluoropyridin-3-yl)ethyl (4-(6-(methoxymethyl)-5-(methylsulfonamido)pyridin-2-yl)-1-methyl-1H-1,2,3-triazol-5-yl)carbamate], for which the EC50 was 235 nM. Regarding `COCc1nc(-c2nnn(C)c2NC(=O)O[C@H](C)c2cccnc2Cl)ccc1NS(C)(=O)=O` [Compound 145, (R)-1-(2-chloropyridin-3-yl)ethyl (4-(6-(methoxymethyl)-5-(methylsulfonamido)pyridin-2-yl)-1-methyl-1H-1,2,3-triazol-5-yl)carbamate], the EC50 was determined as 493 nM. The figure for `COc1nc(-c2nnn(C)c2NC(=O)O[C@H](C)c2ccccc2)ccc1NS(C)(=O)=O` [Compound 1, (R)-1-phenylethyl (4-(6-methoxy-5-(methylsulfonamido)pyridin-2-yl)-1-methyl-1H-1,2,3-triazol-5-yl)carbamate] is 323 nM; for `Cc1nc(-c2nnn(C)c2NC(=O)OC(C)c2ncccc2Cl)ccc1NS(C)(=O)=O` (stereo not shown) [Compound 131, 1-(3-chloropyridin-2-yl)ethyl (1-methyl-4-(6-methyl-5-(methylsulfonamido)pyridin-2-yl)-1H-1,2,3-triazol-5-yl)carbamate] it is 675 nM; for `COc1nc(-c2nnn(C)c2NC(=O)O[C@H](C)c2cccnc2Cl)ccc1NS(C)(=O)=O` [Compound 146, (R)-1-(2-chloropyridin-3-yl)ethyl (4-(6-methoxy-5-(methylsulfonamido)pyridin-2-yl)-1-methyl-1H-1,2,3-triazol-5-yl)carbamate] it is 580 nM. Regarding `C[C@@H](OC(=O)Nc1c(-c2ccc(NS(C)(=O)=O)cn2)nnn1C)c1ccccc1Cl` [Compound 10, (R)-1-(2-chlorophenyl)ethyl (1-methyl-4-(5-(methylsulfonamido)pyridin-2-yl)-1H-1,2,3-triazol-5-yl)carbamate], the EC50 stood at 37.4 nM.

As for `Cc1ncc(F)cc1[C@@H](C)OC(=O)Nc1c(-c2ccc(NS(C)(=O)=O)cn2)nnn1C` [Compound 112, (R)-1-(5-fluoro-2-methylpyridin-3-yl)ethyl (1-methyl-4-(5-(methylsulfonamido)pyridin-2-yl)-1H-1,2,3-triazol-5-yl)carbamate], the concentration for a half-maximal effect (EC50) was found to be 106 nM. Consider `Cc1nc(-c2nnn(C)c2NC(=O)O[C@H](C)c2cccc(Cl)c2)ccc1NS(C)(=O)=O` [Compound 41, (R)-1-(3-chlorophenyl)ethyl (1-methyl-4-(6-methyl-5-(methylsulfonamido)pyridin-2-yl)-1H-1,2,3-triazol-5-yl)carbamate], for which the EC50 stood at 65 nM. To `Cc1nc(-c2nnn(C)c2NC(=O)OC(C)c2conc2C)ccc1NS(C)(=O)=O` (stereo not shown) [Compound 136, 1-(3-methylisoxazol-4-yl)ethyl (1-methyl-4-(6-methyl-5-(methylsulfonamido)pyridin-2-yl)-1H-1,2,3-triazol-5-yl)carbamate] belongs 3770 nM; to `Cc1nc(-c2nnn(C)c2NC(=O)O[C@H](CF)c2ccccc2)c(F)cc1NS(C)(=O)=O` [Compound 156, (S)-2-fluoro-1-phenylethyl (4-(3-fluoro-6-methyl-5-(methylsulfonamido)pyridin-2-yl)-1-methyl-1H-1,2,3-triazol-5-yl)carbamate], 162 nM. For the molecule `Cc1nc(-c2nnn(C)c2NC(=O)OC(C)c2cc(F)cnc2Br)ccc1NS(C)(=O)=O` (stereo not shown) [Compound 126, 1-(2-bromo-5-fluoropyridin-3-yl)ethyl (1-methyl-4-(6-methyl-5-(methylsulfonamido)pyridin-2-yl)-1H-1,2,3-triazol-5-yl)carbamate], the EC50 amounted to 232 nM. On to `Cc1nc(-c2nnn(C)c2NC(=O)O[C@@H](c2cc(F)ccc2F)C(F)F)ccc1NS(C)(=O)=O` [Compound 26, (S)-1-(2,5-difluorophenyl)-2,2-difluoroethyl (1-methyl-4-(6-methyl-5-(methylsulfonamido)pyridin-2-yl)-1H-1,2,3-triazol-5-yl)carbamate], for which the EC50 amounted to 34.1 nM. To `Cc1nc(-c2nnn(C)c2NC(=O)O[C@H](C)c2cccc(Cl)c2F)ccc1NS(C)(=O)=O` [Compound 24, (R)-1-(3-chloro-2-fluorophenyl)ethyl (1-methyl-4-(6-methyl-5-(methylsulfonamido)pyridin-2-yl)-1H-1,2,3-triazol-5-yl)carbamate] belongs 276 nM; to `C[C@@H](OC(=O)Nc1c(-c2ccc(NS(C)(=O)=O)c(F)n2)nnn1C)c1cccnc1Cl` [Compound 153, (R)-1-(2-chloropyridin-3-yl)ethyl (4-(6-fluoro-5-(methylsulfonamido)pyridin-2-yl)-1-methyl-1H-1,2,3-triazol-5-yl)carbamate], 207 nM; to `Cn1nnc(-c2ccc(NS(C)(=O)=O)cn2)c1NC(=O)O[C@H](CF)c1ccccc1` [Compound 18, (S)-2-fluoro-1-phenylethyl (1-methyl-4-(5-(methylsulfonamido)pyridin-2-yl)-1H-1,2,3-triazol-5-yl)carbamate], 46.1 nM.
